Starred links: 1 amine or outer side, 2 acyl side, 3 side chain; linkers in the order of their positions; H or OH if unused. Non-standard residues stand in square brackets, D forms with d. Residues, ends and D or L forms follow the SMILES beside them. Groups on a side chain read outwards from the residue. *: point of attachment. C18 diacid = O=C(O)CCCCCCCCCCCCCCCCC(=O)*; γGlu = O=C(O)[C@H](CCC(=O)[*:2])N[*:1]; Ac4c = NC1(C(=O)O)CCC1; AEEA = NCCOCCOCC(=O)O; Aib = CC(C)(N)C(=O)O
Each compound was assayed against T1, human GLP-1 receptor (Homo sapiens, UniProt P43220) (assay: Assay (II)(a) GLP-1 receptor binding, 125I-GLP-1 displacement SPA on BHK membranes). Details: without presence of serum albumin; read-out: GLP-1R IC50 (nM) [Assay (II)(a)].
T1 construct: expressed in transfected cells; host or cells: membranes of BHK cells (parent BHKTS13), clone FCW467-12A
How it was run: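 Membranes from BHK cells (clone FCW467-12A) stably expressing human GLP-1R were incubated with serially diluted compounds (8×10EE-13 to 8×10EE-7 M before addition) and [125I]-GLP-1-(7-36)NH2 with WGA SPA beads, 2 h at 30° C, pH 7.4. IC50 taken from displacement by non-linear regression. Run at ≤0.001% or 2.0% final serum albumin.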

T1 sequence (P43220 24-463): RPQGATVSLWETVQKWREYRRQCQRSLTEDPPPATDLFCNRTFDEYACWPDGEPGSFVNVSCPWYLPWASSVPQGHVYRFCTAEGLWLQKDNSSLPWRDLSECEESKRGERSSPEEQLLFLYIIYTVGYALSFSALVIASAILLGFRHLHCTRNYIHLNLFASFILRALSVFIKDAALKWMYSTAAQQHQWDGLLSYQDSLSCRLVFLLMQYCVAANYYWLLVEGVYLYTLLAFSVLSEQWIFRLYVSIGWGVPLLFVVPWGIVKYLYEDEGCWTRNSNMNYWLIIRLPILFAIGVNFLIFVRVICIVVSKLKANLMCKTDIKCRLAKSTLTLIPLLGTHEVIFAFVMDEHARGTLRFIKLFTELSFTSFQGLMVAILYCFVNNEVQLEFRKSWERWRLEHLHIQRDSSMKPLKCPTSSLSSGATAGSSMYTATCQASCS

Structure (SMILES) | IC50 [nM]
CC[C@H](C)[C@H](NC(=O)[C@H](CC(C)C)NC(=O)[C@H](Cc1c[nH]c2ccccc12)NC(=O)[C@H](C)NC(=O)[C@@H](NC(=O)[C@H](Cc1ccccc1)NC(=O)[C@H](CC(=O)O)NC(=O)[C@H](CCC(N)=O)NC(=O)[C@H](C)NC(=O)[C@H](CCCNC(=N)N)NC(=O)[C@H](CCCNC(=N)N)NC(=O)[C@H](CO)NC(=O)[C@H](CCC(=O)O)NC(=O)[C@H](CC(C)C)NC(=O)[C@H](Cc1ccc(O)cc1)NC(=O)[C@H](CCCCN)NC(=O)[C@H](CO)NC(=O)[C@H](Cc1ccc(O)cc1)NC(=O)[C@H](CC(=O)O)NC(=O)[C@H](CO)NC(=O)[C@@H](NC(=O)[C@H](Cc1ccccc1)NC(=O)[C@@H](NC(=O)CNC(=O)[C@H](CCC(N)=O)NC(=O)C(C)(C)NC(=O)[C@@H](N)Cc1c[nH]cn1)[C@@H](C)O)[C@@H](C)O)C(C)C)C(=O)N[C@@H](CCCCNC(=O)CC[C@H](NC(=O)CC[C@H](NC(=O)COCCOCCNC(=O)COCCOCCNC(=O)CC[C@H](NC(=O)CCCCCCCCCCCCCCCCC(=O)O)C(=O)O)C(=O)O)C(=O)O)C(=O)N[C@H](C(N)=O)[C@@H](C)O [Chem. 34, N^ε28-[(4S)-4-carboxy-4-[[(4S)-4-carboxy-4-[[2-[2-[2-[[2-[2-[2-[[(4S)-4-carboxy-4-(17-carboxyheptadecanoylamino)butanoyl]amino]ethoxy]ethoxy]acetyl]amino]ethoxy]ethoxy]acetyl]amino]butanoyl]amino]butanoyl]-[Aib2,Glu15,Ala24,Ile27,Lys28]-Glucagon amide] (H-H[Aib]QGTFTSDYSKYLESRRAQDFVAWLIK([γGlu-γGlu-AEEA-AEEA-γGlu-C18 diacid])T-NH2) | 2.2
CC[C@H](C)[C@H](NC(=O)[C@H](CC(C)C)NC(=O)[C@H](Cc1c[nH]c2ccccc12)NC(=O)[C@H](CCC(N)=O)NC(=O)[C@@H](NC(=O)[C@H](Cc1ccccc1)NC(=O)[C@H](CC(=O)O)NC(=O)[C@H](CCCNC(=N)N)NC(=O)[C@H](C)NC(=O)[C@H](CCCNC(=N)N)NC(=O)[C@H](CCCNC(=N)N)NC(=O)[C@H](CO)NC(=O)[C@H](CCC(=O)O)NC(=O)[C@H](CC(C)C)NC(=O)[C@H](Cc1ccc(O)cc1)NC(=O)[C@H](CCCNC(=N)N)NC(=O)[C@H](CO)NC(=O)[C@H](Cc1ccc(O)cc1)NC(=O)[C@H](CC(=O)O)NC(=O)[C@H](CO)NC(=O)[C@@H](NC(=O)[C@H](Cc1ccccc1)NC(=O)[C@@H](NC(=O)CNC(=O)[C@H](CCC(N)=O)NC(=O)C1(NC(=O)[C@@H](N)Cc2c[nH]cn2)CCC1)[C@@H](C)O)[C@@H](C)O)C(C)C)C(=O)N[C@@H](CCCCNC(=O)CC[C@H](NC(=O)COCCOCCNC(=O)CC[C@H](NC(=O)COCCOCCNC(=O)CC[C@H](NC(=O)COCCOCCNC(=O)CC[C@H](NC(=O)CC[C@H](NC(=O)CCCCCCCCCCCCCCCCC(=O)O)C(=O)O)C(=O)O)C(=O)O)C(=O)O)C(=O)O)C(=O)N[C@H](C(N)=O)[C@@H](C)O [Chem. 36, N^ε28-[(4S)-4-carboxy-4-[[2-[2-[2-[[(4S)-4-carboxy-4-[[2-[2-[2-[[(4S)-4-carboxy-4-[[2-[2-[2-[[(4S)-4-carboxy-4-[[(4S)-4-carboxy-4-(17-carboxyheptadecanoylamino)butanoyl]amino]butanoyl]amino]ethoxy]ethoxy]acetyl]amino]butanoyl]amino]ethoxy]ethoxy]acetyl]amino]butanoyl]amino]ethoxy]ethoxy]acetyl]amino]butanoyl]-[Acb2,Arg12,Glu15,Arg20,Ile27,Lys28]-Glucagon amide] (H-H[Ac4c]QGTFTSDYSRYLESRRARDFVQWLIK([γGlu-AEEA-γGlu-AEEA-γGlu-AEEA-γGlu-γGlu-C18 diacid])T-NH2; N-terminus assumed) | 1.5
CC[C@H](C)[C@H](NC(=O)[C@H](CC(C)C)NC(=O)[C@H](Cc1c[nH]c2ccccc12)NC(=O)[C@H](CCC(N)=O)NC(=O)[C@@H](NC(=O)[C@H](Cc1ccccc1)NC(=O)[C@H](CC(=O)O)NC(=O)[C@H](CCCNC(=N)N)NC(=O)[C@H](C)NC(=O)[C@H](CCCNC(=N)N)NC(=O)[C@H](CCCNC(=N)N)NC(=O)[C@H](CO)NC(=O)[C@H](CCC(=O)O)NC(=O)[C@H](CC(C)C)NC(=O)[C@H](Cc1ccc(O)cc1)NC(=O)[C@H](CCCNC(=N)N)NC(=O)[C@H](CO)NC(=O)[C@H](Cc1ccc(O)cc1)NC(=O)[C@H](CC(=O)O)NC(=O)[C@H](CO)NC(=O)[C@@H](NC(=O)[C@H](Cc1ccccc1)NC(=O)[C@@H](NC(=O)CNC(=O)[C@H](CCC(N)=O)NC(=O)C(C)(C)NC(=O)[C@@H](N)Cc1c[nH]cn1)[C@@H](C)O)[C@@H](C)O)C(C)C)C(=O)N[C@@H](CCCCNC(=O)CC[C@H](NC(=O)COCCOCCNC(=O)CC[C@H](NC(=O)COCCOCCNC(=O)CC[C@H](NC(=O)COCCOCCNC(=O)CC[C@H](NC(=O)CC[C@H](NC(=O)CCCCCCCCCCCCCCCCC(=O)O)C(=O)O)C(=O)O)C(=O)O)C(=O)O)C(=O)O)C(=O)N[C@H](C(N)=O)[C@@H](C)O [Chem. 37, N^28-[(4S)-4-carboxy-4-[[2-[2-[2-[[(4S)-4-carboxy-4-[[2-[2-[2-[[(4S)-4-carboxy-4-[[2-[2-[2-[[(4S)-4-carboxy-4-[[(4S)-4-carboxy-4-(17-carboxyheptadecanoylamino)butanoyl]amino]butanoyl]amino]ethoxy]ethoxy]acetyl]amino]butanoyl]amino]ethoxy]ethoxy]acetyl]amino]butanoyl]amino]ethoxy]ethoxy]acetyl]amino]butanoyl]-[Aib2,Arg12,Glu15,Arg20,Ile27,Lys28]-Glucagon amide] (H-H[Aib]QGTFTSDYSRYLESRRARDFVQWLIK([γGlu-AEEA-γGlu-AEEA-γGlu-AEEA-γGlu-γGlu-C18 diacid])T-NH2; N-terminus assumed) | 1.5
CC[C@H](C)[C@H](NC(=O)[C@H](CC(C)C)NC(=O)[C@H](Cc1c[nH]c2ccccc12)NC(=O)[C@H](CCC(N)=O)NC(=O)[C@@H](NC(=O)[C@H](Cc1ccccc1)NC(=O)[C@H](CCC(=O)O)NC(=O)[C@H](CCC(N)=O)NC(=O)[C@H](C)NC(=O)[C@H](CCCNC(=N)N)NC(=O)[C@H](CCCNC(=N)N)NC(=O)[C@H](CO)NC(=O)[C@H](CCC(=O)O)NC(=O)[C@H](CC(C)C)NC(=O)[C@H](Cc1ccc(O)cc1)NC(=O)[C@H](CCCCN)NC(=O)[C@H](CO)NC(=O)[C@H](CC(C)C)NC(=O)[C@H](CC(=O)O)NC(=O)[C@H](CO)NC(=O)[C@@H](NC(=O)[C@H](Cc1ccccc1)NC(=O)[C@@H](NC(=O)CNC(=O)[C@H](CCC(N)=O)NC(=O)C1(NC(=O)[C@@H](N)Cc2c[nH]cn2)CCC1)[C@@H](C)O)[C@@H](C)O)C(C)C)C(=O)N[C@@H](CCCCNC(=O)CC[C@H](NC(=O)COCCOCCNC(=O)COCCOCCNC(=O)CC[C@H](NC(=O)CC[C@H](NC(=O)CCCCCCCCCCCCCCCCC(=O)O)C(=O)O)C(=O)O)C(=O)O)C(=O)N[C@H](C(N)=O)[C@@H](C)O [Chem. 38, N^ε28-[(4S)-4-carboxy-4-[[2-[2-[2-[[2-[2-[2-[[(4S)-4-carboxy-4-[[(4S)-4-carboxy-4-(17-carboxyheptadecanoylamino)butanoyl]amino]butanoyl]amino]ethoxy]ethoxy]acetyl]amino]ethoxy]ethoxy]acetyl]amino]butanoyl]-[Acb2,Leu10,Glu15,Glu21,Ile27,Lys28]-Glucagon amide] (H-H[Ac4c]QGTFTSDLSKYLESRRAQEFVQWLIK([γGlu-AEEA-AEEA-γGlu-γGlu-C18 diacid])T-NH2; N-terminus assumed) | 0.3

Source: US10570184B2, “GLP-1/glucagon receptor co-agonists for medical use” (Novo Nordisk A/S, priority 2014, dated 2020)
